Here are results for 3 compounds from patent US9346839B2.

Read-outs that look alike come from different tables or passages of the source.

Series [1] has as its system Cells. As to the kind of experiment: MTT reduction assay (cell survival and toxicity). The class given is cell-based. To be noted: 1, 10, 50, 100 μM for 48 to 66 hours, compared to vehicle. The protocol:
Cell Survival and Toxicity Assay. The MTT (3-(4,5-dimethylthiazol-2-yl)-2,5-diphenyltetrazolium bromide) assay, which is widely used to measure cell proliferation and to screen for anticancer drugs, was used for assessing cell viability. Cells were treated with a range of ABAD compounds at 1, 10, 50, and 100 μM for 48 hours and then subjected to MTT reduction assay following the manufacture's instruction.
(§1) Effect of ABAD Inhibitor on Cell Survival and Toxicity. The effect of ABAD inhibitors on cell viability and toxicity was assessed using MTT reduction assay and trypan blue exclusion, which are widely used to assess cell survival and toxicity and to screen for drugs toxicity. Cells were treated with a range of concentrations of ABAD compound (4 and 8) at 1, 10, 50, 100 μM for 48 to 66 hours.
(Tetrazolium dyes change colour on reduction, which living cells bring about.)

Series [2] is described as follows: Pharmacokinetic study, plasma and brain levels by LC-MS/MS. To be noted: both sexes, C57BL6, mouse, intravenous 10 mg/kg, mice; for AUC(0-t): read-out: AUC0-48. Format: in vivo. The protocol: Liquid Chromatography (LC) Method for Mass Spectrometry (MS) Detection. Chromatographic separation was on an ACE C18 column (Mac Mod Analytical, 3 μm, Ultra-Inert HPLC Column, 50×2.1 mm) protected by a matched ACE guard cartridge. Separation solvents were A: H2O (99%), methanol (1%), and formic acid (0.1%) and B: H2O (1%), methanol (99%), and formic acid (0.1%) delivered at a flow rate of 400 μl/minute. The hydrophobic character of the analytes allows a large injection (50 μl) to chromatofocus on a column at 5% B. After 0.2 minutes separation was with a linear gradient of 11% B/minute for 4 minutes. Column wash was to 80% B for 2 minutes and re-equilibration at 5% B for 1.5 minutes for a total run-time of 8 minutes. The first 2 minutes of chromatographic effluent was diverted to waste.
Mass Spectrometry Parameters. The mass spectrometer was run in positive ion mode using the electrospray ionization (ESI) source. The source block was 100° C. and desolvation gas temperature 300° C. Argon collision gas pressure on a line to the cell was 1E-3 mbar. Quadrupoles 1 and 3 were set to 0.9 amu FWHH and collision energy and cone voltage settings were optimized for each compound. The data were processed using MassLynx 4.1/QuanLynx and Graphpad Prism 5. Fragmentation patterns of compounds 4, 8, and 15, methyl (Z)-3-(((6-methoxybenzo[d]thiazol-2-yl)imino)methyl)benzoate, 4-(1-((6-methoxybenzo-[d]thiazol-2-yl)amino)ethyl)phenol, and (Z)-1-(4-fluorophenyl)-N-(6-methoxybenzo[d]thiazol-2-yl) methanimine were determined by infusing an aqueous/methanol solution introduce with a T fitting into 30% solvent B from the UPLC for source optimization. The most abundant transitions were chosen for all the three compounds.
Plasma Sample Preparation. Mouse plasma samples, 50 μl, were transferred to a 1.5 ml centrifuge tube and then 50 μl of IS (4 μg/ml) and 50 μl of calibration standard sample were vortexed for 30 seconds. Acetonitrile (0.1 ml) was added to precipitate the proteins. After being vortexed for 3 minutes, the sample was centrifuged for 10 minutes at 13000 rpm. Supernatant (50 μl) was diluted with 50 μl water and injected onto the column.
Brain Sample Preparation. Brain tissue (100 mg) was weighed and placed in a centrifuge tube. Methanol (100 μl) was added and the mixture was homogenized for 1 minute before adding 100 μl IS (6 μg/ml) to the homogenized mixture. The sample was then vortexed for 30 seconds before centrifuging for 10 minute at 13000 rpm. The supernatant liquid was diluted 50% with water and injected.
Application to Pharmacokinetic Study and Data Analysis. Using the validated LCMS/MS method, blood and brain levels of 4, 8, and 15 were measured in male and female C57BL6 mice (8-10 week-old, weighing approximately 25-30 grams). The mice were housed in a room with controlled temperature (23±3° C.) and moisture level (55±15% relative humidity) and exposed to a controlled 12 hour light/12 hour dark cycle. They were allowed to access to food and water ad libitum. Mice were fasted for 6 hours with free access to water prior to the pharmacokinetic study. To determine the time course of compounds 4, 8, and 15 action in the brain, the plasma pharmacokinetics and BBB penetration capability of the inhibitors were investigated. In these experiments, compounds 4, 8, and 15 were administered to mice by intravenous injection at a dosage of 10 mg/kg. Blood and brain samples were collected from mouse at each time point (2, 5, 10, 30, 60, 120, 240, 360, 720, 1440, and 2880 minutes), a total of 11 time points. For plasma measurements, blood (approximately 500-800 μl) was collected via cardiac-puncture into tubes containing sodium heparin anti-coagulant. Plasma was separated via centrifugation (4° C., 3500 rpm, 10 minutes) and stored in −80° C. freezer. For qualitative confirmations of these compounds in CSF, samples were collected at 2 time points (240 and 1440 min) from five animals at each time point. […]

The subject of series [3] is Cells. Description: Trypan blue dye exclusion (cell viability and toxicity). Format: cell-based. To be noted: 1, 10, 50, 100 μM for 48 to 66 hours, compared to vehicle. As for the experimental part: The trypan blue dye exclusion is commonly used for measuring cell viability and toxicity. 48-66 hours after treatment of ABAD compounds, the trypan blue exclusion experiments were performed. In brief, cells plated in 96-well plates were washed with the balanced salt solution (Hanks-Balanced Salts/HESS) once, then replaced with HBSS including trypan blue solution to the final concentration of 0.2% (Sigma-Aldrich, St. Louis, Mo.), and mixed thoroughly. After standing at room temperature for 5 minutes, the cells were washed with HBSS again and then maintained in the well with HBSS. Both the stained and unstained cells in each well were counted under a microscope (Nikon E400). The calculated percentage of unstained cells represented the percentage of viable cells. Cell viability(%)=total viable cells (unstained)/total cells (stained and unstained)×100.
as §1

Series [4] in a line: Solubility in solvents during method development. The class given is physicochemical. As for the experimental part:
Method Development. During the development of a detection method for analytes 4, 8 and 15, multiple solvents were tested to find the optimal mobile phase. […] Acetonitrile was selected for better peak shape and compatibility with serum/brain protein precipitation. Compounds 8 and 15 were chosen as IS, because of their structural similarity. Selected reaction monitoring (SRM) acquisitions were used for sensitivity and extended dynamic range. The cone voltage and collision energy were optimized for 4, 8 and 15 and the IS by continuously infusing a mixture of the two. The optimum cone voltage was 30V.

One may read the AUC(0-inf) as total exposure, with the tail of the curve extrapolated. The low end stands for less exposure, the high end for more exposure. In general, Cmax refers to the maximum level reached in the sampled fluid or tissue. A word on the half-life: it is the time needed for the level to fall by half in the phase considered. Low readings indicate fast loss, high ones slow loss. As for `COc1ccc2nc(N[C@@H](c3ccc(O)cc3)P(=O)(OC)OC)sc2c1` (racemic) [Compound 8, Dimethyl ((4-hydroxyphenyl)((6-methoxybenzo[d]thiazol-2-yl)amino)methyl)phosphonate], in the series on Cells [1], the MTT reduction entry is “did not exhibit decreased MTT reduction”. For the same compound, in series [2] (Brain), the total exposure AUC(0-inf) worked out at 7.1 ng·h/mL, the peak concentration (Cmax) was 4.8 ng/mL, the half-life was 8.3 h and the AUC(0-t) was 6.9 ng·h/mL. Moreover, in series [2] (Plasma), the area under the curve AUC(0-inf) came out at 2870 ng·h/mL, the Cmax was determined as 2130 ng/mL, the half-life is 5.5 h and the AUC(0-t) came out at 2860 ng·h/mL. The “increased percentage of trypan blue-positive cells” value in the series on Cells [3] was “did not exhibit”. In series [4], the “solubility in methanol or acetonitrile” value is “dissolved readily in methanol or acetonitrile” and the solubility in water result was “dissolved partially in water”.
By Tmax is commonly meant the time from dosing to the highest level. `COC(=O)c1cc([C@H](Nc2nc3ccc(OC)cc3s2)P(=O)(OC)OC)ccc1O` [Compound 4, Methyl 5-((dimethoxyphosphoryl)((6-methoxybenzo[d]thiazol-2-yl)amino)methyl)-2-hydroxybenzoate]: the MTT reduction entry with Cells [1] is on record as “did not exhibit decreased MTT reduction”. In addition, in series [2] (Brain), the AUC(0-inf) worked out at 75.1 ng·h/mL, the peak concentration (Cmax) was 50.7 ng/mL, the time of peak concentration (Tmax) was determined as 1.8 min and the half-life was 17.1 h. For the same compound, the AUC(0-t) in series [2] (Brain) stood at 66.5 ng·h/mL. Besides, in series [2] (Plasma), the AUC(0-inf) was found to be 3030 ng·h/mL, the Cmax was determined as 2370 ng/mL, the time of peak concentration (Tmax) came out at 1.8 min and the half-life is 6.2 h. Besides, the AUC(0-t) in series [2] (Plasma) is 3030 ng·h/mL. Moreover, the “increased percentage of trypan blue-positive cells” value in the series on Cells [3] is on record as “did not exhibit”. Moreover, in series [4], the “solubility in methanol or acetonitrile” value is “dissolved readily in methanol or acetonitrile” and the solubility in water result is listed as “dissolved partially in water”.
As to `COc1ccc2nc(N[C@@H](c3ccc(F)cc3)P(=O)(OC)OC)sc2c1` [Compound 15, Dimethyl ((4-fluorophenyl)((6-methoxybenzo[d]thiazol-2-yl)amino)methyl)phosphonate], in series [2] (Brain), the AUC(0-inf) came out at 65.4 ng·h/mL, the Cmax came to 44.3 ng/mL, the time of peak concentration (Tmax) amounted to 1.8 min and the half-life was 11.4 h. Further, the AUC(0-t) in series [2] (Brain) came to 64 ng·h/mL. Further, in series [2] (Plasma), the total exposure AUC(0-inf) worked out at 2990 ng·h/mL, the highest level (Cmax) was 1980 ng/mL, the Tmax stood at 1.8 min and the half-life was 6.1 h. In addition, in series [2] (Plasma), the AUC(0-t) was 2980 ng·h/mL. Besides, in series [4], the “solubility in methanol or acetonitrile” value is recorded as “dissolved readily in methanol or acetonitrile” and the solubility in water result was “dissolved partially in water”.
